Experiments:
D(1A) dopamine receptor = D(1A) dopamine receptor (Homo sapiens, UniProt P21728); assay: DRUGMATRIX: Dopamine D1 radioligand binding (ligand: [3H] SCH-23390); assay type: cell membranes, CHO, Membrane; details: Not Active = under 50% inhibition at 10 µM
[1] = DRUGMATRIX: Glutamate, Kainate radioligand binding (ligand: [3H] Kainic acid); assay type: cell membranes, Rattus norvegicus, Wistar, Brain, Membrane; details: Not Active = under 50% inhibition at 10 µM
D(3) dopamine receptor = D(3) dopamine receptor (Homo sapiens, UniProt P35462); assay: DRUGMATRIX: Dopamine D3 radioligand binding (ligand: [3H] Spiperone); assay type: cell membranes, CHO, Membrane; details: for Ki: read-out: Ki
Adenosine receptor A3 = biological target: T1, Adenosine receptor A3 (Homo sapiens, UniProt P0DMS8); assay type: cell membranes, CHO-K1, Membrane; details: for Ki: read-out: Ki;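 for all read-outs here: radioligand binding assay with AB-MECA serving as the labeled ligand; in other assays of this panel Not Active means under 50% inhibition at 10 µM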
T1 sequence (P0DMS8 whole entry): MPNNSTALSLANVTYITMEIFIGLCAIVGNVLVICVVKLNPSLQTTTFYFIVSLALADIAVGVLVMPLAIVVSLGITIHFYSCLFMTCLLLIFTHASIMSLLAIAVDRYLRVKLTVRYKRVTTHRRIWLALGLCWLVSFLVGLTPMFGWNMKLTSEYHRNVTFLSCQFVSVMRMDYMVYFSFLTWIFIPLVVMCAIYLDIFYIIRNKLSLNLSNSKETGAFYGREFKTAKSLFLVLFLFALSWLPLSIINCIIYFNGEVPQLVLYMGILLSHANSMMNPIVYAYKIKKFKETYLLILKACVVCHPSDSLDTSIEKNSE

Insulin receptor = Insulin receptor (Rattus norvegicus, UniProt P15127); assay type: cell membranes, Wistar, Liver, Membrane; note: in other assays of this panel Not Active means under 50% inhibition at 10 µM
Cytochrome P450 2D6 = Cytochrome P450 2D6 (Homo sapiens, UniProt P10635); details: bti-tn-5b1-4; note: in other assays of this panel Not Active means under 50% inhibition at 10 µM
Cytochrome P450 2D6, sequence (P10635 whole entry): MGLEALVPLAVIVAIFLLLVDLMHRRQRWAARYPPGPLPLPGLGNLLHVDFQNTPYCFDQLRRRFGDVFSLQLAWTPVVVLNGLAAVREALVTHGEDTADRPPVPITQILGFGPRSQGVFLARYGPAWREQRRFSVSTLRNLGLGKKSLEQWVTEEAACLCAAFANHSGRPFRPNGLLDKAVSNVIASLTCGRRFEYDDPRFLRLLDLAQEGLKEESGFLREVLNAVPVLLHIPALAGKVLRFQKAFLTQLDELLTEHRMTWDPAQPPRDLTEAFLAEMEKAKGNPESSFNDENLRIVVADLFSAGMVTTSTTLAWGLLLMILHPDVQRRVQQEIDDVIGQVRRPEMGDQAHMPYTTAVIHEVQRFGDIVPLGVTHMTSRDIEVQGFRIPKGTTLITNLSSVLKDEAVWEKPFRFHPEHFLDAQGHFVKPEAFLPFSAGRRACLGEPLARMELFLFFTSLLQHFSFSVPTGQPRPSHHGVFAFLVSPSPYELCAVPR

D(3) dopamine receptor, sequence (P35462 whole entry): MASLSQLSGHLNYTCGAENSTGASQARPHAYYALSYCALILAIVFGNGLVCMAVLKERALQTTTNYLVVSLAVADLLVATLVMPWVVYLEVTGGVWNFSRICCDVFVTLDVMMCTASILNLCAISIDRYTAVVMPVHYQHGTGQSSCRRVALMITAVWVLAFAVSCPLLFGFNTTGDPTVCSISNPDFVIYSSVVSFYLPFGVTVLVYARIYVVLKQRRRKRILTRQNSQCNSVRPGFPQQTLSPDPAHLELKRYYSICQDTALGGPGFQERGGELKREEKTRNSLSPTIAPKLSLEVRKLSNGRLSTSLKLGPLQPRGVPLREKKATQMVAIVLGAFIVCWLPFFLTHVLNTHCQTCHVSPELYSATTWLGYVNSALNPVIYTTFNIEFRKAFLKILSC
D(1A) dopamine receptor, sequence (P21728 whole entry): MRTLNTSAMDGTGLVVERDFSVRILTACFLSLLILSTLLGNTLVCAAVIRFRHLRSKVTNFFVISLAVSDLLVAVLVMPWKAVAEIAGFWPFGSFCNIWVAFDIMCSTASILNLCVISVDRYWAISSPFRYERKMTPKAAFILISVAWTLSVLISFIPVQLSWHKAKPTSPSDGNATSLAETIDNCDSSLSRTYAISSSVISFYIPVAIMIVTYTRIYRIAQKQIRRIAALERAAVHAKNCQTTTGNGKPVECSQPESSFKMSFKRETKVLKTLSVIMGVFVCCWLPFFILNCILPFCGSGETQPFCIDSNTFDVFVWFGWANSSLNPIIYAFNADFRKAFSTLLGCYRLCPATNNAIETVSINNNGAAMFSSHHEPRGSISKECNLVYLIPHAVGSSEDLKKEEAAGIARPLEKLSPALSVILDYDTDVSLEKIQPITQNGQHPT
Insulin receptor, sequence (P15127 27-759 limits assumed): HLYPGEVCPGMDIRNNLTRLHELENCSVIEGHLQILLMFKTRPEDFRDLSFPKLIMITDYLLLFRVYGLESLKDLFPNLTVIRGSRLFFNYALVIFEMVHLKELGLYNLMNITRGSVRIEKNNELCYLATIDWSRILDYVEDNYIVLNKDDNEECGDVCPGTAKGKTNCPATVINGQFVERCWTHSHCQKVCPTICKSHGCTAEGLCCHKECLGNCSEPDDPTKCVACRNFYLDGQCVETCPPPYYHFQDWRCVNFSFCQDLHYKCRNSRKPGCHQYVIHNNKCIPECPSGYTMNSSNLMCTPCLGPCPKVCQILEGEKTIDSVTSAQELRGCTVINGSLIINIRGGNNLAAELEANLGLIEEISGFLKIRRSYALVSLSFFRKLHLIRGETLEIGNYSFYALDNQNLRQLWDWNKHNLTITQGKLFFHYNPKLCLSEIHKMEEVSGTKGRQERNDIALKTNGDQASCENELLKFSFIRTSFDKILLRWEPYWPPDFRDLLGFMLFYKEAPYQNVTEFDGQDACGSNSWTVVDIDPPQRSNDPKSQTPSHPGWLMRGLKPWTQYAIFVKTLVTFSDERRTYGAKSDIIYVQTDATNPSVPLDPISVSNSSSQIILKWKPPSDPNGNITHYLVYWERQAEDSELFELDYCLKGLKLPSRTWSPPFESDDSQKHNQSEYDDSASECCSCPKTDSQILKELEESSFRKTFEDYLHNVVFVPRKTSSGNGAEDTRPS
Insulin receptor, sequence (P15127 764-1383 limits assumed): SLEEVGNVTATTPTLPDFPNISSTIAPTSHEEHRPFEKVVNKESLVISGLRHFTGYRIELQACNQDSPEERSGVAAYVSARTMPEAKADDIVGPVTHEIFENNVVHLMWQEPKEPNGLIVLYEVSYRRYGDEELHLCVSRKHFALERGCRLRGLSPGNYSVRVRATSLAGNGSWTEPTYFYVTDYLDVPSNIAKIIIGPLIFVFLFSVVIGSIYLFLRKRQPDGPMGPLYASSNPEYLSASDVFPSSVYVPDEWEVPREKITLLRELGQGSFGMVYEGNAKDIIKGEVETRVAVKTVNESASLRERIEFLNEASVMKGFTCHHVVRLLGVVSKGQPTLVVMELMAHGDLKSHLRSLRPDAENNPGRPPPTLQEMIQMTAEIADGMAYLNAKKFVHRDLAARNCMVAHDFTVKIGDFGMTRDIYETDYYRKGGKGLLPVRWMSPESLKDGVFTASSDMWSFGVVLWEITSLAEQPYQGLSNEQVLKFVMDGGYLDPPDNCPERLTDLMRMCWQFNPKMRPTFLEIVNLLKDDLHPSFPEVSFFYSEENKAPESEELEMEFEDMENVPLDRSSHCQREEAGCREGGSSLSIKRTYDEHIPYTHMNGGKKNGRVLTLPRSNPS

| SMILES | IC50 (D(1A) dopamine receptor; cho) | IC50 [1] | Ki [1] | IC50 (D(3) dopamine receptor; cho) | IC50 (Adenosine receptor A3; read-out: IC50) [µM] | Ki (Adenosine receptor A3) [µM] | IC50 (Insulin receptor) | IC50 (Adenosine receptor A3; cho-k1) | IC50 (Cytochrome P450 2D6) | Ki (Cytochrome P450 2D6) | IC50 (D(3) dopamine receptor; read-out: IC50) [nM] | Ki (D(3) dopamine receptor) [nM] | IC50 (D(1A) dopamine receptor; read-out: IC50) [nM] | Ki (D(1A) dopamine receptor; read-out: Ki) [nM] |
| --- | --- | --- | --- | --- | --- | --- | --- | --- | --- | --- | --- | --- | --- | --- |
| CCOc1nc2cccc(C(=O)O)c2n1Cc1ccc(-c2ccccc2-c2nnn[nH]2)cc1 | Not Active | Not Active | Not Active | Not Active | 1.22 | 0.69 | Not Active |  |  |  |  |  |  |  |
| O=C(O)CCCc1cccs1 | Not Active | Not Active | Not Active | Not Active |  |  | Not Active | Not Active | Not Active | Not Active |  |  |  |  |
| COc1ccccc1N | Not Active | Not Active | Not Active | Not Active |  |  | Not Active | Not Active | Not Active | Not Active |  |  |  |  |
| O=C(c1ccccc1F)N1CCC(Cc2ccccc2)CC1 | Not Active | Not Active | Not Active | Not Active |  |  | Not Active | Not Active | Not Active | Not Active |  |  |  |  |
| Cc1c(O)cccc1C(=O)N[C@@H](CSc1ccccc1)[C@H](O)CN1C[C@H]2CCCC[C@H]2C[C@H]1C(=O)NC(C)(C)C |  | Not Active | Not Active | Not Active | 14.8 | 8.36 | Not Active |  | Not Active | Not Active |  |  |  |  |
| CC(O)COC[C@H]1O[C@@H]2O[C@H]3[C@H](O)[C@@H](O)[C@@H](O[C@H]4[C@H](O)[C@@H](O)[C@@H](O[C@H]5[C@H](O)[C@@H](O)[C@@H](O[C@H]6[C@H](O)[C@@H](O)[C@@H](O[C@H]7[C@H](O)[C@@H](O)[C@@H](O[C@H]8[C@H](O)[C@@H](O)[C@@H](O[C@H]1[C@H](O)[C@H]2O)O[C@@H]8COCC(C)O)O[C@@H]7COCC(C)O)O[C@@H]6COCC(C)O)O[C@@H]5COCC(C)O)O[C@@H]4COCC(C)O)O[C@@H]3COCC(C)O (stereo partly drawn) [2-HYDROXYPROPYL-BETA-CYCLODEXTRIN] | Not Active | Not Active | Not Active | Not Active |  |  | Not Active | Not Active | Not Active | Not Active |  |  |  |  |
| NC(=O)c1cccc(N)c1 [3-AMINOBENZAMIDE] | Not Active | Not Active | Not Active | Not Active |  |  | Not Active | Not Active | Not Active | Not Active |  |  |  |  |
| C[C@H]1O[C@H](O[C@H]2[C@H](O)[C@@H](O)[C@@H](O[C@H]3[C@H](O)[C@@H](O)C(O)O[C@@H]3CO)O[C@@H]2CO)[C@H](O)[C@@H](O)[C@@H]1N[C@H]1C=C(CO)[C@@H](O)[C@H](O)[C@H]1O (some centres not stated) [ACARBOSE] | Not Active | Not Active | Not Active | Not Active |  |  | Not Active | Not Active | Not Active | Not Active |  |  |  |  |
| CC[C@H]1[C@@H]2C[C@H]3[C@@H]4N(C)c5ccccc5[C@]45C[C@@H]([C@@H]2[C@H]5O)N3[C@@H]1O [AJMALINE] | Not Active | Not Active | Not Active | Not Active |  |  | Not Active | Not Active |  |  |  |  |  |  |
| NC12CC3CC(CC(C3)C1)C2 [AMANTADINE] | Not Active | Not Active | Not Active | Not Active |  |  | Not Active | Not Active |  |  |  |  |  |  |
| NCCCNCCSP(=O)(O)O [AMIFOSTINE] | Not Active | Not Active | Not Active |  |  |  | Not Active | Not Active | Not Active | Not Active | 1930 | 655 |  |  |
| CN(C)CCC=C1c2ccccc2CCc2ccccc21 [AMITRIPTYLINE] |  | Not Active | Not Active |  |  |  | Not Active | Not Active | Not Active | Not Active | 182 | 62 | 355 | 178 |
| CC(=O)Oc1ccccc1C(=O)O [ASPIRIN] | Not Active | Not Active | Not Active | Not Active |  |  | Not Active | Not Active | Not Active | Not Active |  |  |  |  |
| CC(C)c1c(C(=O)Nc2ccccc2)c(-c2ccccc2)c(-c2ccc(F)cc2)n1CC[C@@H](O)C[C@@H](O)CC(=O)O [ATORVASTATIN] | Not Active | Not Active | Not Active | Not Active |  |  | Not Active | Not Active |  |  |  |  |  |  |
| CC(=O)OC[C@H]1O[C@@H](n2ncc(=O)[nH]c2=O)[C@H](OC(C)=O)[C@@H]1OC(C)=O [AZARIBINE] | Not Active | Not Active | Not Active | Not Active |  |  | Not Active | Not Active | Not Active | Not Active |  |  |  |  |
| C[C@H]1[C@H](NC(=O)/C(=N\OC(C)(C)C(=O)O)c2csc(N)n2)C(=O)N1S(=O)(=O)O [AZTREONAM] | Not Active | Not Active | Not Active | Not Active |  |  | Not Active | Not Active | Not Active | Not Active |  |  |  |  |
| O=C(O)CCNC(=O)c1ccc(/N=N/c2ccc(O)c(C(=O)O)c2)cc1 [BALSALAZIDE] | Not Active | Not Active | Not Active | Not Active |  |  | Not Active | Not Active | Not Active | Not Active |  |  |  |  |
| COc1cc(OC)c(C(=O)CCCN2CCCC2)c(OC)c1 [BUFLOMEDIL] | Not Active | Not Active | Not Active | Not Active |  |  | Not Active | Not Active | Not Active | Not Active |  |  |  |  |
| Cn1c(=O)c2c(ncn2C)n(C)c1=O [CAFFEINE] | Not Active | Not Active | Not Active | Not Active |  |  | Not Active | Not Active | Not Active | Not Active |  |  |  |  |
| ClC(Cl)(Cl)Cl [CARBON TETRACHLORIDE] | Not Active | Not Active | Not Active | Not Active |  |  | Not Active | Not Active | Not Active | Not Active |  |  |  |  |
| CO/N=C(\C(=O)N[C@@H]1C(=O)N2C(C(=O)O)=C(COC(C)=O)CS[C@H]12)c1csc(N)n1 [CEFOTAXIME] | Not Active | Not Active | Not Active | Not Active |  |  | Not Active | Not Active | Not Active | Not Active |  |  |  |  |
| CNC1=Nc2ccc(Cl)cc2C(c2ccccc2)=[N+]([O-])C1 [CHLORDIAZEPOXIDE] | Not Active | Not Active | Not Active | Not Active |  |  | Not Active | Not Active | Not Active | Not Active |  |  |  |  |
| CN1CCN(C(c2ccccc2)c2ccccc2)CC1 [CYCLIZINE] | Not Active | Not Active | Not Active |  |  |  | Not Active | Not Active |  |  | 2990 | 1020 |  |  |
| CC(C)(C(=O)O)c1ccc(C(O)CCCN2CCC(C(O)(c3ccccc3)c3ccccc3)CC2)cc1 (configuration not stated) [FEXOFENADINE] | Not Active | Not Active | Not Active | Not Active |  |  | Not Active | Not Active |  |  |  |  |  |  |
| CC(=O)OCC(=O)[C@@]12OC(C)(C)O[C@@H]1C[C@H]1[C@@H]3C[C@H](F)C4=CC(=O)C=C[C@]4(C)[C@@]3(F)[C@@H](O)C[C@@]12C [FLUOCINONIDE] | Not Active | Not Active | Not Active | Not Active |  |  | Not Active | Not Active |  |  |  |  |  |  |
| N[C@@H](Cn1ccc(=O)c(O)c1)C(=O)O [L-MIMOSINE] | Not Active | Not Active | Not Active | Not Active |  |  | Not Active | Not Active |  |  |  |  |  |  |
| C[C@@H]1C/C=C/C=C/C=C/C=C/[C@H](O[C@@H]2O[C@H](C)[C@@H](O)[C@H](N)[C@@H]2O)C[C@@H]2O[C@](O)(C[C@@H](O)C[C@H]3O[C@@H]3/C=C/C(=O)O1)C[C@H](O)[C@H]2C(=O)O [NATAMYCIN] | Not Active | Not Active | Not Active | Not Active |  |  | Not Active | Not Active |  |  |  |  |  |  |
| N=C(N)c1ccc(OCCCCCOc2ccc(C(=N)N)cc2)cc1 [PENTAMIDINE] | Not Active | Not Active | Not Active |  |  |  | Not Active | Not Active | Not Active | Not Active |  |  |  |  |
| NNCCc1ccccc1 [PHENELZINE] | Not Active | Not Active | Not Active | Not Active |  |  | Not Active | Not Active |  |  |  |  |  |  |
| CC[C@]1(O)C[C@@H]2CN(CCc3c([nH]c4ccccc34)[C@@](C(=O)OC)(c3cc4c(cc3OC)N(C)[C@H]3[C@@](O)(C(N)=O)[C@H](O)[C@]5(CC)C=CCN6CC[C@]43[C@@H]65)C2)C1 [VINDESINE] | Not Active | Not Active | Not Active | Not Active |  |  | Not Active | Not Active |  |  |  |  |  |  |

Reference: ChEMBL document CHEMBL1909046, “DrugMatrix in vitro pharmacology data”
